Test results taken from patent publication US20240101576A1, “HETEROCYCLIC INHIBITORS OF EGFR AND/OR HER2, FOR USE IN THE TREATMENT OF CANCER” (Scorpion Therapeutics, Inc., priority 2020, published 2024).

How the values were obtained:
Format in all cases: cell-based
[1] = molecular target: T1, EGFR WT (Ba/F3 cells) (Homo sapiens, UniProt P00533); test: Inhibitor activity on EGFR-dependent cell growth (CellTiter-Glo, 72 h), Ba/F3 EGFR WT; settings: read-out: BaF3 WT IC50
T1 construct: expressed in transfected cells; host or cells: Ba/F3 (murine pro-B cells), retroviral transduction, puromycin selection, maintained with EGF
Method in brief: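 This growth assay used Ba/F3 cells that depend on wild-type EGFR and are kept in EGF without IL3. Compounds were made up as 10 mM DMSO stocks and diluted 3-fold over 10 points. 120 nL went onto 600 cells/well. After 72 hours, 40 μL CellTiter-Glo was added and luminescence read on EnVision after 30 min.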

[2] = molecular target: T2, EGFR exon 20 NPG Ins D770_N771 (Ba/F3 cells) (Homo sapiens, UniProt P00533, INS770NPG); test: Inhibitor activity on EGFR-dependent cell growth (CellTiter-Glo, 72 h), Ba/F3 EGFR exon 20 NPG Ins; settings: read-out: BaF3 NPG IC50
T2 construct: expressed in transfected cells; host or cells: Ba/F3 (murine pro-B cells), retroviral transduction, puromycin selection, IL3-independent pool
From the text: Example A. Inhibitor Activity on EGFR-Dependent Cell Growth
Cell lines are generated by transducing Ba/F3 cells with retroviruses containing vectors with EGFR WT, EGFR L858R, EGFR exon 19del, EGFR L858R/C797S, EGFR exon 20 NPG Ins D770_N771, EGFR exon 20 ASV Ins V769_D770, EGFR exon 20 SVD Ins D770_N771, or EGFR exon 20 FQEA Ins A763_V764 genes and a puromycin selection marker. Transduced cells are selected with puromycin for 7 days and are then be transferred into culture media without Interleukin 3 (IL3). EGFR WT cells are maintained with supplemental EGF. Surviving cells are confirmed to express EGFR by Western blot and maintained as a pool. The IC50 date were included in Table 6 and Table 7.
1.1 Cells are harvested from flask into cell culture medium and the cell number counted.
1.2 Cells are diluted with culture medium to the desired density and 40 μL of cell suspension is added into each well of 384-well cell culture plate and the seeding density is 800 (FQEA, exon 19del), 600 (WT, NPG, L858R/C797S), or 400 (ASV, SVD, L858R) cells/well.
2 Compound Preparation and Treatment
2.1 Test compounds are dissolved to 10 mM in a DMSO stock solution. 45 μL of stock solution is transferred to a 384 polypropylene plate (pp-plate). Perform 3-fold, 10-point dilution via transferring 15 μL compound into 30 μL DMSO using a TECAN (EVO200) liquid handler.
2.2 Spin plates at room temperature at 1,000 RPM for 1 minute.
2.3 Transfer 120 nL of diluted compound from compound source plate into the cell plate.
2.4 After compound treatment for 72 hours, perform CTG detection for compound treatment plates as described in “Detection” section.
3.1 Plates are removed from incubators and equilibrated at room temperature for 15 minutes.
3.2 Thaw the CellTiter Glo reagents and allow to equilibrate to room temperature before the experiment.
3.3 Add 40 μL of CellTiter-Glo reagent into each well (at 1:1 to culture medium). Then place the plates at room temperature for 30 min followed by reading on EnVision.
4.1 Inhibition activity is calculated following the formula below:
% Inhibition=100×(LumHC−LumSample)/(LumHC−LumLC) • where HC is obtained from cells treated with 0.1% DMSO only; and LC is obtained from culture medium only.
4.2 2. Calculate the IC50 by fitting the Curve using Xlfit (v5.3.1.3), equation 201.
Y=Bottom+(Top−Bottom)/(1+10^((Log IC50−X)*HillSlope))

[3] = molecular target: T3, EGFR exon 20 ASV Ins V769_D770 (Ba/F3 cells) (Homo sapiens, UniProt P00533, INS769ASV); test: Inhibitor activity on EGFR-dependent cell growth (CellTiter-Glo, 72 h), Ba/F3 EGFR exon 20 ASV Ins; settings: read-out: BaF3 ASV IC50
T3 construct: expressed in transfected cells; host or cells: Ba/F3 (murine pro-B cells), retroviral transduction, puromycin selection, IL3-independent pool
Method in brief: (§1)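 IC50s derive from a sigmoidal dose–response fit of CellTiter-Glo signal. The signal was normalised between […]-treated cells and cell-free medium. Ba/F3 mutant-EGFR cells, seeded at 400–800/well depending on the line, had 72 h of exposure to a 10-point, 3-fold compound series.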

[4] = molecular target: T4, EGFR exon 20 SVD Ins D770_N771 (Ba/F3 cells) (Homo sapiens, UniProt P00533, INS770SVD); test: Inhibitor activity on EGFR-dependent cell growth (CellTiter-Glo, 72 h), Ba/F3 EGFR exon 20 SVD Ins; settings: read-out: BaF3 SVD IC50
T4 construct: expressed in transfected cells; host or cells: Ba/F3 (murine pro-B cells), retroviral transduction, puromycin selection, IL3-independent pool
Method in brief: as §1

T2 sequence (P00533 with tags, fused parts or gaps INS770NPG): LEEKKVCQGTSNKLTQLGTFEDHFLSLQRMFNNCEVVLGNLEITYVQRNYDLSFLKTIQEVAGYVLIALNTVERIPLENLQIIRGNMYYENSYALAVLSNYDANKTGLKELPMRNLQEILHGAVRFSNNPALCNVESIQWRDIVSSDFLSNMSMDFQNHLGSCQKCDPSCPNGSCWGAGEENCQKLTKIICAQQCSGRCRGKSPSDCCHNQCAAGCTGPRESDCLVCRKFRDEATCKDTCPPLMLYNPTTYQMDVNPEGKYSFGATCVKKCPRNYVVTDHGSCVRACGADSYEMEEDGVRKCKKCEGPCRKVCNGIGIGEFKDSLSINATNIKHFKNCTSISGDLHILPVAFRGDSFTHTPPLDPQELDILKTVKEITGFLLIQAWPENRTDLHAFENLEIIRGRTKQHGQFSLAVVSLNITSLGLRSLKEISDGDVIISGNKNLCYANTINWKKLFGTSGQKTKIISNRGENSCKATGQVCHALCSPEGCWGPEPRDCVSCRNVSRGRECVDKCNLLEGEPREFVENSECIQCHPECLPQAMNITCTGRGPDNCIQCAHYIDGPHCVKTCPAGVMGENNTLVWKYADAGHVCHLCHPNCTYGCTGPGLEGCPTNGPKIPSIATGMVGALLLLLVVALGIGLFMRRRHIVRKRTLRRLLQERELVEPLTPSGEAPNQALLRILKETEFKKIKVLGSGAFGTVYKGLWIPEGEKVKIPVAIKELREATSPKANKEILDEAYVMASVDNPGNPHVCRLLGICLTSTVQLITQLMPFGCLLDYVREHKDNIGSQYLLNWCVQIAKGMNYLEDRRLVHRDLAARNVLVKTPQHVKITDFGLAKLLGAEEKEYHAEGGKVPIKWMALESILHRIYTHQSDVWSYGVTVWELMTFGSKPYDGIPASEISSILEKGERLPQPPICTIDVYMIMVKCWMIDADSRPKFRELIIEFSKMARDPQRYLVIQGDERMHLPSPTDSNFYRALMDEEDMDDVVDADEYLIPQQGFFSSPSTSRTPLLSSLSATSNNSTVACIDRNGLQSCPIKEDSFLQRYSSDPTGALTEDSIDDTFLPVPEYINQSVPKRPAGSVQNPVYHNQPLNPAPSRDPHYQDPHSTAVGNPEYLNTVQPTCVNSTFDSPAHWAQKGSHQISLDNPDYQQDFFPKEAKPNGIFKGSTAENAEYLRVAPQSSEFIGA
T3 sequence (P00533 with tags, fused parts or gaps INS769ASV): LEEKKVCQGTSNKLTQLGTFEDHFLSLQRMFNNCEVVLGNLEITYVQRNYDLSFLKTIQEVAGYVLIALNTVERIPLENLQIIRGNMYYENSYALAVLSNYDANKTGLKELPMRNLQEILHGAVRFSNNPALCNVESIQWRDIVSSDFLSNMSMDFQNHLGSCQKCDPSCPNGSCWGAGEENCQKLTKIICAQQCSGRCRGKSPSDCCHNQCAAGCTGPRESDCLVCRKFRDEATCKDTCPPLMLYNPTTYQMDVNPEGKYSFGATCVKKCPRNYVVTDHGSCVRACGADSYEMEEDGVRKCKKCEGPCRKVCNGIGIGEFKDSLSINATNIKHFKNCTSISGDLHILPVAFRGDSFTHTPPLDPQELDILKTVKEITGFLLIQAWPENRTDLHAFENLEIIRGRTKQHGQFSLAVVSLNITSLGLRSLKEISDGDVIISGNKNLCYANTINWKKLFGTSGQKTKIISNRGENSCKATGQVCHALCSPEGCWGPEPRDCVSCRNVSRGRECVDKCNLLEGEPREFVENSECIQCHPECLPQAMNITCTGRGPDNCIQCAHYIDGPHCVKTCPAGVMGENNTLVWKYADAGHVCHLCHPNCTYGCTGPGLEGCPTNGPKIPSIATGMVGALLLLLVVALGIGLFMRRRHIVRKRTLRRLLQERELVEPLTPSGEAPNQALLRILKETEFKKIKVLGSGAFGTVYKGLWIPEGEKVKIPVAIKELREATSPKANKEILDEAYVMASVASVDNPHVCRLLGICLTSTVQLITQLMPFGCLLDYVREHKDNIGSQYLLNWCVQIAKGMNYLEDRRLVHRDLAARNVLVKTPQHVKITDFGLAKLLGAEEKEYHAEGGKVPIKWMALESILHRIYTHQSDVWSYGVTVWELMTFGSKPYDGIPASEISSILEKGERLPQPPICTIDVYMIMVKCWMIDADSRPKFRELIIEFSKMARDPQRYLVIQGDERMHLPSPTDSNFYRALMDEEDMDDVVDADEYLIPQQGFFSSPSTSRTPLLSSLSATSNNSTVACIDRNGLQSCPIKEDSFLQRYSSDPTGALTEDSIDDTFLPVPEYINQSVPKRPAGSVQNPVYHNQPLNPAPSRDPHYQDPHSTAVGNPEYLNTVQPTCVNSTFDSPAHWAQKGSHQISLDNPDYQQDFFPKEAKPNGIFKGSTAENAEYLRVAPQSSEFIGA
T4 sequence (P00533 with tags, fused parts or gaps INS770SVD): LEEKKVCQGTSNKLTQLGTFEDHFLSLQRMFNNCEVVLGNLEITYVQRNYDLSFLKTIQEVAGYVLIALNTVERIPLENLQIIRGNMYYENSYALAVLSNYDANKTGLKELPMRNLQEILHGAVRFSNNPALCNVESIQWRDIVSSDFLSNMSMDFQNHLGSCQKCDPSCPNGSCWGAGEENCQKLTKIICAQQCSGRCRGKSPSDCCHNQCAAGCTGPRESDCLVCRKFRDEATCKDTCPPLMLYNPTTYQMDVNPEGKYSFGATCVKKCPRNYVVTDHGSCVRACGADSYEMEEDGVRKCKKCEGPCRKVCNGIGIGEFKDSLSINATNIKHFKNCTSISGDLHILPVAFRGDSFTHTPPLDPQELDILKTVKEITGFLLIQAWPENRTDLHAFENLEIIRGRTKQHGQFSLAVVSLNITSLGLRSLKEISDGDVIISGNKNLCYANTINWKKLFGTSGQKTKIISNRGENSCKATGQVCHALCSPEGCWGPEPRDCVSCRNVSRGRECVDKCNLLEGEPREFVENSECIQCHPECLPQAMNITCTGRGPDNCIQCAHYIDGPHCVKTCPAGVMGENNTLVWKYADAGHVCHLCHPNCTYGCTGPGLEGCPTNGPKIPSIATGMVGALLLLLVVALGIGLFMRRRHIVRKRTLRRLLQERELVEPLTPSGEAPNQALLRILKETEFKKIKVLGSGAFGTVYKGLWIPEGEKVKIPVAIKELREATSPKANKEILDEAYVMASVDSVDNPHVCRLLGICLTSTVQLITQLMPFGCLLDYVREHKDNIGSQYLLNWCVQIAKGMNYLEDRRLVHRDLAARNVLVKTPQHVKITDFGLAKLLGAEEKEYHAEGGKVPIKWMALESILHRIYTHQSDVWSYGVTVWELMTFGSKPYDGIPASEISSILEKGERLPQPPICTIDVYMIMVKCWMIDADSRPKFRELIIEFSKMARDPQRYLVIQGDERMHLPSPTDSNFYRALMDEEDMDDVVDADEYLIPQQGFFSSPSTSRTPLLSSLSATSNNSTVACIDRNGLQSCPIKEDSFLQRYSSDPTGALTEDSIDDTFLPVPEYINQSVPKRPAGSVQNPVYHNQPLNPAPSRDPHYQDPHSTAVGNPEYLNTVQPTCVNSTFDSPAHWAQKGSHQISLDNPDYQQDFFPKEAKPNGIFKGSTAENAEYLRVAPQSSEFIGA
T1 sequence (P00533 25-1210): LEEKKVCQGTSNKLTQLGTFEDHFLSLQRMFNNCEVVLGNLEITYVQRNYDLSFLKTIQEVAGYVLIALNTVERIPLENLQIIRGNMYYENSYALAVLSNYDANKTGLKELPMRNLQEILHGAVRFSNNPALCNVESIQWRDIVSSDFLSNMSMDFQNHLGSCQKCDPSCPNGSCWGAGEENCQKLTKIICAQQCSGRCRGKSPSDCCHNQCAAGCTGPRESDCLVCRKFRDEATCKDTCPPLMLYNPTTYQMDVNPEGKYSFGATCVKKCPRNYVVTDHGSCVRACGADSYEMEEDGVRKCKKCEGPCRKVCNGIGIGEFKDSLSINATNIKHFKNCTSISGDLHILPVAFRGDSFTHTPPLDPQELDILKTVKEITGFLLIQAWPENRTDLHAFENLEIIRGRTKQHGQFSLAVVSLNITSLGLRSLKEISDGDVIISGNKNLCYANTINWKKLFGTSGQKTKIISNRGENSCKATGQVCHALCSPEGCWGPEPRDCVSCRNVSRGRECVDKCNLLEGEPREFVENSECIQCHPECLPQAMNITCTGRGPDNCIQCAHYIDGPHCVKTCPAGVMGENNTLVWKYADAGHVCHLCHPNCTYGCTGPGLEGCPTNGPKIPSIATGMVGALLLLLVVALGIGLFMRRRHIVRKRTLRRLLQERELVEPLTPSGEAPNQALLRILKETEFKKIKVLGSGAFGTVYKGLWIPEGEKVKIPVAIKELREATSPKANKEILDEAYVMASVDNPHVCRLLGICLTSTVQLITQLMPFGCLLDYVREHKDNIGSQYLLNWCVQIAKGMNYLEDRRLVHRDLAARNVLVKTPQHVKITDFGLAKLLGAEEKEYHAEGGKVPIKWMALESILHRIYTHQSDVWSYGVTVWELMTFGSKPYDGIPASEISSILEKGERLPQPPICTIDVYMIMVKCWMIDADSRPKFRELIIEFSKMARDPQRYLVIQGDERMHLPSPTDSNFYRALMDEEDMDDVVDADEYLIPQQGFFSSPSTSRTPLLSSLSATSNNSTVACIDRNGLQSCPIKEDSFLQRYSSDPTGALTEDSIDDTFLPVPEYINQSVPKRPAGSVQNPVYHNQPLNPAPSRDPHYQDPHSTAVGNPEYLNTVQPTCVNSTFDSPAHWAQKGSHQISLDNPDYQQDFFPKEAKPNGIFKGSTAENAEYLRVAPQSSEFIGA

Row | Structure (SMILES) | IC50 [1] | IC50 [2] | IC50 [3] | IC50 [4]
1 | C=CC(=O)N1CCC(Oc2nc3c(-c4[nH]c5c(c4Nc4cccc(F)c4OC)C(=O)NCC5)ccnc3cc2OC)CC1 [Compound 554, 3-[(3-fluoro-2-methoxyphenyl)amino]-2-(7-methoxy-6-{[1-(prop-2-enoyl)piperidin-4-yl]oxy}-1,5-naphthyridin-4-yl)-1H,5H,6H,7H-pyrrolo[3,2-c]pyridin-4-one] | < 100 nM | < 100 nM | < 100 nM | < 100 nM
2 | CC#CC(=O)N1CCC2(CC1)CNC(=O)c1c2[nH]c(-c2ccncc2F)c1Nc1cccc(Cl)c1OC [Compound 555, 1-(but-2-ynoyl)-3′-[(3-chloro-2-methoxyphenyl)amino]-2′-(3-fluoropyridin-4-yl)-5′,6′-dihydro-1′H-spiro[piperidine-4,7′-pyrrolo[3,2-c]pyridin]-4′-one] | > 1000 nM | > 1000 nM | > 1000 nM | > 1000 nM
3 | C=CC(=O)N1CCC2(CC1)CNC(=O)c1c2[nH]c(-c2ccnc(N)n2)c1Nc1cccc(Cl)c1OC [Compound 556, 2′-(2-aminopyrimidin-4-yl)-3′-[(3-chloro-2-methoxyphenyl)amino]-1-(prop-2-enoyl)-5′,6′-dihydro-1′H-spiro[piperidine-4,7′-pyrrolo[3,2-c]pyridin]-4′-one] | 100 to 1000 nM | < 100 nM | < 100 nM | < 100 nM
4 | C=CC(=O)N1CCC2(CC1)CNC(=O)c1c2[nH]c(-c2ccncc2F)c1Nc1cccc(Cl)c1CC [Compound 558, 3′-[(3-chloro-2-ethylphenyl)amino]-2′-(3-fluoropyridin-4-yl)-1-(prop-2-enoyl)-5′,6′-dihydro-1′H-spiro[piperidine-4,7′-pyrrolo[3,2-c]pyridin]-4′-one] | < 100 nM | < 100 nM | < 100 nM | < 100 nM
5 | C=CC(=O)N1CCC2(CC1)CNC(=O)c1c2[nH]c(-c2ccncc2F)c1Nc1cccc(F)c1SC [Compound 560, 3′-{[3-fluoro-2-(methylsulfanyl)phenyl]amino}-2′-(3-fluoropyridin-4-yl)-1-(prop-2-enoyl)-5′,6′-dihydro-1′H-spiro[piperidine-4,7′-pyrrolo[3,2-c]pyridin]-4′-one] | 100 to 1000 nM | < 100 nM | < 100 nM | < 100 nM
6 | C=CC(=O)N1CCC2(CC1)CNC(=O)c1c2[nH]c(-c2ccncc2F)c1Nc1cccc(Br)c1OC [Compound 561, 3′-[(3-bromo-2-methoxyphenyl)amino]-2′-(3-fluoropyridin-4-yl)-1-(prop-2-enoyl)-5′,6′-dihydro-1′H-spiro[piperidine-4,7′-pyrrolo[3,2-c]pyridin]-4′-one] | 100 to 1000 nM | < 100 nM | < 100 nM | < 100 nM
7 | COc1c(F)cccc1Nc1c(-c2ccnc3cnc(N4CCN(C(=O)/C=C/CN(C)C)CC4)nc23)[nH]c2c1C(=O)NCC2 [Compound 577, 2-(2-{4-[(2E)-4-(dimethylamino)but-2-enoyl]piperazin-1-yl}pyrido[3,2-d]pyrimidin-8-yl)-3-[(3-fluoro-2-methoxyphenyl)amino]-1H,5H,6H,7H-pyrrolo[3,2-c]pyridin-4-one] | 100 to 1000 nM | < 100 nM | < 100 nM | < 100 nM
8 | C=CC(=O)N1CCC2(CC1)CNC(=O)c1c2[nH]c(-c2ccncc2F)c1Nc1cccc(F)c1F [Compound 585, 3′-[(2,3-difluorophenyl)amino]-2′-(3-fluoropyridin-4-yl)-1-(prop-2-enoyl)-5′,6′-dihydro-1′H-spiro[piperidine-4,7′-pyrrolo[3,2-c]pyridin]-4′-one] | 100 to 1000 nM | < 100 nM | < 100 nM | < 100 nM
9 | C=CC(=O)N1CCC2(CC1)CNC(=O)c1c2[nH]c(-c2ccncc2F)c1Nc1cccc(Cl)c1F [Compound 586, 3′-[(3-chloro-2-fluorophenyl)amino]-2′-(3-fluoropyridin-4-yl)-1-(prop-2-enoyl)-5′,6′-dihydro-1′H-spiro[piperidine-4,7′-pyrrolo[3,2-c]pyridin]-4′-one] | 100 to 1000 nM | < 100 nM | < 100 nM | < 100 nM

The remaining lines, values ahead:

Row | IC50 [1] | IC50 [2] | IC50 [3] | IC50 [4] | Structure (SMILES)
10 | 100 to 1000 nM | < 100 nM | < 100 nM | < 100 nM | C=CC(=O)N1CCC2(CC1)CNC(=O)c1c2[nH]c(-c2ccncc2F)c1Nc1ccc(F)c(Cl)c1 [Compound 587, 3′-[(3-chloro-4-fluorophenyl)amino]-2′-(3-fluoropyridin-4-yl)-1-(prop-2-enoyl)-5′,6′-dihydro-1′H-spiro[piperidine-4,7′-pyrrolo[3,2-c]pyridin]-4′-one]
11 | < 100 nM | < 100 nM | < 100 nM | < 100 nM | C=CC(=O)N1CCC2(CC1)CNC(=O)c1c2[nH]c(-c2ccncc2F)c1Nc1ccc(Cl)c(F)c1 [Compound 588, 3′-[(4-chloro-3-fluorophenyl)amino]-2′-(3-fluoropyridin-4-yl)-1-(prop-2-enoyl)-5′,6′-dihydro-1′H-spiro[piperidine-4,7′-pyrrolo[3,2-c]pyridin]-4′-one]
12 | 100 to 1000 nM | < 100 nM | < 100 nM | < 100 nM | C=CC(=O)N1CCC2(CC1)CNC(=O)c1c2[nH]c(-c2ccncc2F)c1Nc1cccc(Cl)c1Cl [Compound 589, 3′-[(2,3-dichlorophenyl)amino]-2′-(3-fluoropyridin-4-yl)-1-(prop-2-enoyl)-5′,6′-dihydro-1′H-spiro[piperidine-4,7′-pyrrolo[3,2-c]pyridin]-4′-one]
13 | > 1000 nM | 100 to 1000 nM | > 1000 nM | > 1000 nM | C=CC(=O)N1CCC2(CC1)CNC(=O)c1c2[nH]c(-c2ccncc2F)c1Nc1ccc(Cl)c(Cl)c1 [Compound 590, 3′-[(3,4-dichlorophenyl)amino]-2′-(3-fluoropyridin-4-yl)-1-(prop-2-enoyl)-5′,6′-dihydro-1′H-spiro[piperidine-4,7′-pyrrolo[3,2-c]pyridin]-4′-one]
14 | 100 to 1000 nM | < 100 nM | < 100 nM | < 100 nM | CCn1cc(Nc2nccc(-c3[nH]c4c(c3Nc3cccc(Cl)c3OC)C(=O)NCC4)n2)nn1 [Compound 594, 3-[(3-chloro-2-methoxyphenyl)amino]-2-{2-[(1-ethyl-1,2,3-triazol-4-yl)amino]pyrimidin-4-yl}-1H,5H,6H,7H-pyrrolo[3,2-c]pyridin-4-one]
15 | 100 to 1000 nM | 100 to 1000 nM | 100 to 1000 nM | 100 to 1000 nM | COc1ncc2nccc(-c3[nH]c4c(c3Nc3cccc(F)c3OC)C(=O)NC(C(F)(F)F)C4)c2n1 (centres unmarked) [Compound 595, 3-[(3-fluoro-2-methoxyphenyl)amino]-2-{2-methoxypyrido[3,2-d]pyrimidin-8-yl}-6-(trifluoromethyl)-1H,5H,6H,7H-pyrrolo[3,2-c]pyridin-4-one]
16 | > 1000 nM | > 1000 nM | 100 to 1000 nM | 100 to 1000 nM | CC#CC(=O)N1CCC2(CC1)CNC(=O)c1c2[nH]c(-c2ccncc2F)c1Nc1cccc(F)c1OC [Compound 609, 1-(but-2-ynoyl)-3′-[(3-fluoro-2-methoxyphenyl)amino]-2′-(3-fluoropyridin-4-yl)-5′,6′-dihydro-1′H-spiro[piperidine-4,7′-pyrrolo[3,2-c]pyridin]-4′-one]
17 | 100 to 1000 nM | < 100 nM | < 100 nM | < 100 nM | COc1c(Cl)cccc1Nc1c(-c2ccnc(-c3cnn(C)c3)n2)[nH]c2c1C(=O)NCC2 [compound 121]
